Source: PubChem BioAssay AID2060905 (Molecular Pharmacology Branch, DTP, NCI, 2025)

Tested on: 282377-053-R-J1-PDC complex spheroid viability
Assay: Anticancer human tumor 282377-053-R-J1-PDC patient-derived colon adenocarcinoma cell line growth inhibition [RAS]
Conditions: for IC50: curve of first compound; for viability, T/C: stronger effect = lower value
Method in brief: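 Agents were tested in combination matrices in half-log decrements from a top concentration at or near clinical Cmax (10 microM if undetermined). Targets were multi-cell spheroids of tumour lines plus HUVEC and MSC stromal cells.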

[1] = second compound 0.000949 µM, first compound 0.0316 µM
[2] = second compound 0.000949 µM, first compound 0.1 µM
[3] = second compound 0.000949 µM, first compound 0.316 µM
[4] = second compound 0.000949 µM, first compound 1 µM
[5] = second compound 0.000949 µM, first compound 3.16 µM
[6] = second compound 0.000949 µM, first compound 10 µM
[7] = second compound 0.003 µM, first compound 0.0316 µM
[8] = second compound 0.003 µM, first compound 0.1 µM
[9] = second compound 0.003 µM, first compound 0.316 µM
[10] = second compound 0.003 µM, first compound 1 µM
[11] = second compound 0.003 µM, first compound 3.16 µM
[12] = second compound 0.003 µM, first compound 10 µM
[13] = second compound 0.00949 µM, first compound 0.0316 µM
[14] = second compound 0.00949 µM, first compound 0.1 µM
[15] = second compound 0.00949 µM, first compound 0.316 µM
[16] = second compound 0.00949 µM, first compound 1 µM
[17] = second compound 0.00949 µM, first compound 3.16 µM
[18] = second compound 0.00949 µM, first compound 10 µM
[19] = second compound 0.03 µM, first compound 0.0316 µM
[20] = second compound 0.03 µM, first compound 0.1 µM
[21] = second compound 0.03 µM, first compound 0.316 µM
[22] = second compound 0.03 µM, first compound 1 µM
[23] = second compound 0.03 µM, first compound 3.16 µM
[24] = second compound 0.03 µM, first compound 10 µM
[25] = second compound 0.0949 µM, first compound 0.0316 µM
[26] = second compound 0.0949 µM, first compound 0.1 µM
[27] = second compound 0.0949 µM, first compound 0.316 µM
[28] = second compound 0.0949 µM, first compound 1 µM
[29] = second compound 0.0949 µM, first compound 3.16 µM
[30] = second compound 0.0949 µM, first compound 10 µM
[31] = second compound 0.3 µM, first compound 0.0316 µM
[32] = second compound 0.3 µM, first compound 0.1 µM
[33] = second compound 0.3 µM, first compound 0.316 µM
[34] = second compound 0.3 µM, first compound 1 µM
[35] = second compound 0.3 µM, first compound 3.16 µM
[36] = second compound 0.3 µM, first compound 10 µM
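Further: spheroids exposed to agents for seven days before readout.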
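Wherever viability, T/C is given: luminescence viability as percent of DMSO vehicle control wells.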

## CCC(CC)c1cc(NC2CCC(N)C2)n2nccc2n1 (stereo unspecified) + CCn1c(-c2cc(N3CCN(C)CC3)cnc2C(C)OC)c2c3cc(ccc31)-c1csc(n1)CC(NC(=O)C1CC1C)C(=O)N1CCCC(N1)C(=O)OCC(C)(C)C2
Second compound 0.000949 µM
  IC50: 1.71 µM
Second compound 0.003 µM
  IC50: 1.48 µM
Second compound 0.00949 µM
  IC50: 1.72 µM
Second compound 0.03 µM
  IC50: 1.53 µM
Second compound 0.0949 µM
  IC50: 1.78 µM
Second compound 0.3 µM
  IC50: 1.8 µM
[1]
  viability, T/C: 85.5%
[2]
  viability, T/C: 98.8%
[3]
  viability, T/C: 98.5%
[4]
  viability, T/C: 84.1%
[5]
  viability, T/C: 11.1%
[6]
  viability, T/C: 6.68%
[7]
  viability, T/C: 89.4%
[8]
  viability, T/C: 86.5%
[9]
  viability, T/C: 81.2%
[10]
  viability, T/C: 70.5%
[11]
  viability, T/C: 10.4%
[12]
  viability, T/C: 3.1%
[13]
  viability, T/C: 81.9%
[14]
  viability, T/C: 95.3%
[15]
  viability, T/C: 72%
[16]
  viability, T/C: 90.7%
[17]
  viability, T/C: 10.8%
[18]
  viability, T/C: 4.36%
[19]
  viability, T/C: 76%
[20]
  viability, T/C: 82%
[21]
  viability, T/C: 85.7%
[22]
  viability, T/C: 71.2%
[23]
  viability, T/C: 13.2%
[24]
  viability, T/C: 7.45%
[25]
  viability, T/C: 95.7%
[26]
  viability, T/C: 87.2%
[27]
  viability, T/C: 76.1%
[28]
  viability, T/C: 88.6%
[29]
  viability, T/C: 13%
[30]
  viability, T/C: 2.75%
[31]
  viability, T/C: 94.7%
[32]
  viability, T/C: 78%
[33]
  viability, T/C: 86.1%
[34]
  viability, T/C: 94.9%
[35]
  viability, T/C: 13.4%
[36]
  viability, T/C: 3.35%

## Cc1nc(N2CCC3(CC2)COC(C)C3N)c(CO)nc1Sc1ccnc(N)c1Cl (stereo unspecified) + CCn1c(-c2cc(N3CCN(C)CC3)cnc2C(C)OC)c2c3cc(ccc31)-c1csc(n1)CC(NC(=O)C1CC1C)C(=O)N1CCCC(N1)C(=O)OCC(C)(C)C2
Second compound 0.000949 µM
  IC50: > 10 µM
Second compound 0.003 µM
  IC50: > 10 µM
Second compound 0.00949 µM
  IC50: > 10 µM
Second compound 0.03 µM
  IC50: > 10 µM
Second compound 0.0949 µM
  IC50: > 10 µM
Second compound 0.3 µM
  IC50: > 10 µM
[1]
  viability, T/C: 88.7%
[2]
  viability, T/C: 92.8%
[3]
  viability, T/C: 89.5%
[4]
  viability, T/C: 87.7%
[5]
  viability, T/C: 76.8%
[6]
  viability, T/C: 96.8%
[7]
  viability, T/C: 80.6%
[8]
  viability, T/C: 94.4%
[9]
  viability, T/C: 78.7%
[10]
  viability, T/C: 80.5%
[11]
  viability, T/C: 94.8%
[12]
  viability, T/C: 96.5%
[13]
  viability, T/C: 82.7%
[14]
  viability, T/C: 64.8%
[15]
  viability, T/C: 74.6%
[16]
  viability, T/C: 105%
[17]
  viability, T/C: 74.5%
[18]
  viability, T/C: 94%
[19]
  viability, T/C: 80.6%
[20]
  viability, T/C: 82.2%
[21]
  viability, T/C: 90.1%
[22]
  viability, T/C: 85.3%
[23]
  viability, T/C: 88%
[24]
  viability, T/C: 91.1%
[25]
  viability, T/C: 69.7%
[26]
  viability, T/C: 93.5%
[27]
  viability, T/C: 88.9%
[28]
  viability, T/C: 78.6%
[29]
  viability, T/C: 95.5%
[30]
  viability, T/C: 93.8%
[31]
  viability, T/C: 80.5%
[32]
  viability, T/C: 88.8%
[33]
  viability, T/C: 91.1%
[34]
  viability, T/C: 105%
[35]
  viability, T/C: 112%
[36]
  viability, T/C: 89.8%

## NC1c2ccccc2OC12CCN(c1cnc3c(N4CCCc5ncccc54)n[nH]c3n1)CC2 (stereo unspecified) + CCn1c(-c2cc(N3CCN(C)CC3)cnc2C(C)OC)c2c3cc(ccc31)-c1csc(n1)CC(NC(=O)C1CC1C)C(=O)N1CCCC(N1)C(=O)OCC(C)(C)C2
Second compound 0.000949 µM
  IC50: > 10 µM
Second compound 0.003 µM
  IC50: > 10 µM
Second compound 0.00949 µM
  IC50: > 10 µM
Second compound 0.03 µM
  IC50: > 10 µM
Second compound 0.0949 µM
  IC50: > 10 µM
Second compound 0.3 µM
  IC50: > 10 µM
[1]
  viability, T/C: 96.6%
[2]
  viability, T/C: 102%
[3]
  viability, T/C: 87.7%
[4]
  viability, T/C: 99.9%
[5]
  viability, T/C: 106%
[6]
  viability, T/C: 140%
[7]
  viability, T/C: 97.4%
[8]
  viability, T/C: 102%
[9]
  viability, T/C: 96.3%
[10]
  viability, T/C: 99%
[11]
  viability, T/C: 93.7%
[12]
  viability, T/C: 98.6%
[13]
  viability, T/C: 135%
[14]
  viability, T/C: 96.2%
[15]
  viability, T/C: 111%
[16]
  viability, T/C: 90.8%
[17]
  viability, T/C: 100%
[18]
  viability, T/C: 107%
[19]
  viability, T/C: 115%
[20]
  viability, T/C: 109%
[21]
  viability, T/C: 101%
[22]
  viability, T/C: 123%
[23]
  viability, T/C: 122%
[24]
  viability, T/C: 97%
[25]
  viability, T/C: 108%
[26]
  viability, T/C: 118%
[27]
  viability, T/C: 100%
[28]
  viability, T/C: 107%
[29]
  viability, T/C: 111%
[30]
  viability, T/C: 112%
[31]
  viability, T/C: 126%
[32]
  viability, T/C: 152%
[33]
  viability, T/C: 105%
[34]
  viability, T/C: 117%
[35]
  viability, T/C: 110%
[36]
  viability, T/C: 106%
